Data published in ChEMBL document CHEMBL5576063, “Design, concise synthesis and evaluation of novel amide-based combretastatin A-4 analogues as potent tubulin inhibitors” (Bioorg Med Chem Lett, 2024).
pIC50: −log10 of the molar value. Active and inactive are the calls of the source. The calls are words filed in the database; no cut-off is given here.

Legend:
A549 [1] = test: Antiproliferative activity against human A549 cells assessed as inhibition of cell growth by MTT assay; type: functional, cell-based
Tubulin (Homo sapiens) [2] = target: T1, Tubulin (Homo sapiens) (UniProt P68371+Q9H4B7+P0DPH7+P68366+Q13509+Q71U36+P04350+Q3ZCM7+P07437+P68363+Q9BQE3+Q6PEY2+Q13885+Q9BVA1+Q9BUF5); test: Inhibition of tubulin polymerization (unknown origin) at 10 uM measured upto 30 mins by spectrophotometry analysis; type: protein-complex assay
Tubulin (Homo sapiens) [3] = target: T1, Tubulin (Homo sapiens); test: Inhibition of tubulin polymerization (unknown origin) at 10 uM measured upto 30 mins by spectrophotometry based analysis relative to control; type: protein-complex assay
HeLa = test: Antiproliferative activity against human HeLa cells assessed as inhibition of cell growth by MTT assay; type: functional, cell-based
HT-29 = test: Antiproliferative activity against human HT-29 cells assessed as inhibition of cell growth by MTT assay; type: functional, cell-based
[4] = Antiproliferative activity against HEK293 cells assessed as inhibition of cell growth by MTT assay; type: toxicity, cell-based; details: human
HCT-116 = test: Antiproliferative activity against human HCT-116 cells assessed as inhibition of cell growth by MTT assay; type: functional, cell-based
A549 [5] = test: Induction of cell cycle arrest in human A549 cells assessed as accumulation of cells at G0/G1 phase at 4.8 uM measured after 24 hrs by PI staining based flow cytometry analysis (reference value: 55.88%); type: functional
A549 [6] = test: Induction of apoptosis in human A549 cells assessed as necrotic cells at 4.8 uM measured after 24 hrs by annexin-V/PI staining based flow cytometry analysis (reference value: 0.48%); type: functional
A549 [7] = test: Induction of cell cycle arrest in human A549 cells assessed as accumulation of cells at G2/M phase measured after 24 hrs by PI staining based flow cytometry analysis; type: functional; details: dose 1.2-4.8 µM
A549 [8] = test: Induction of apoptosis in human A549 cells assessed as late apoptotic cells at 2.4 uM measured after 24 hrs by annexin-V/PI staining based flow cytometry analysis (reference value: 0.25%); type: functional
Tubulin = test: Inhibition of tubulin polymerization (unknown origin) measured upto 30 mins by spectrophotometry based analysis; type: protein-complex assay, Homo sapiens
A549 [9] = test: Induction of apoptosis in human A549 cells assessed measured after 24 hrs by annexin-V/PI staining based flow cytometry analysis; type: functional, cell-based; details: dose 1.2-4.8 µM
A549 [10] = test: Induction of apoptosis in human A549 cells assessed as viable cells at 2.4 uM measured after 24 hrs by annexin-V/PI staining based flow cytometry analysis (reference value: 97.4%); type: functional; details: read-out: Activity
Tubulin (Homo sapiens) [11] = target: T1, Tubulin (Homo sapiens); test: Inhibition of tubulin polymerization (unknown origin) at 6 uM measured upto 30 mins by spectrophotometry analysis; type: protein-complex assay
A549 [12] = test: Induction of cell cycle arrest in human A549 cells assessed as accumulation of cells at G2/M phase at 2.4 uM measured after 24 hrs by PI staining based flow cytometry analysis (reference value: 21.00%); type: functional
A549 [13] = test: Induction of apoptosis in human A549 cells assessed as necrotic cells at 1.2 uM measured after 24 hrs by annexin-V/PI staining based flow cytometry analysis (reference value: 0.48%); type: functional
A549 [14] = test: Induction of cell cycle arrest in human A549 cells assessed as accumulation of cells at S phase at 1.2 uM measured after 24 hrs by PI staining based flow cytometry analysis (reference value: 23.17%); type: functional
A549 [15] = test: Induction of cell cycle arrest in human A549 cells assessed as accumulation of cells at S phase at 4.8 uM measured after 24 hrs by PI staining based flow cytometry analysis (reference value: 23.17%); type: functional
A549 [16] = test: Induction of apoptosis in human A549 cells assessed as late apoptotic cells at 4.8 uM measured after 24 hrs by annexin-V/PI staining based flow cytometry analysis (reference value: 0.25%); type: functional
A549 [17] = test: Induction of cell cycle arrest in human A549 cells assessed as accumulation of cells at G0/G1 phase at 2.4 uM measured after 24 hrs by PI staining based flow cytometry analysis (reference value: 55.88%); type: functional
A549 [18] = test: Induction of cell cycle arrest in human A549 cells assessed as accumulation of cells at G2/M phase at 4.8 uM measured after 24 hrs by PI staining based flow cytometry analysis (reference value: 21.00%); type: functional
A549 [19] = test: Induction of apoptosis in human A549 cells assessed as early apoptotic cells at 4.8 uM measured after 24 hrs by annexin-V/PI staining based flow cytometry analysis (reference value: 1.87%); type: functional
A549 [20] = test: Induction of apoptosis in human A549 cells assessed as necrotic cells at 2.4 uM measured after 24 hrs by annexin-V/PI staining based flow cytometry analysis (reference value: 0.48%); type: functional
A549 [21] = test: Induction of apoptosis in human A549 cells assessed as early apoptotic cells at 1.2 uM measured after 24 hrs by annexin-V/PI staining based flow cytometry analysis (reference value: 1.87%); type: functional
A549 [22] = test: Induction of apoptosis in human A549 cells assessed as viable cells at 4.8 uM measured after 24 hrs by annexin-V/PI staining based flow cytometry analysis (reference value: 97.4%); type: functional; details: read-out: Activity
A549 [23] = test: Induction of apoptosis in human A549 cells assessed as early apoptotic cells at 2.4 uM measured after 24 hrs by annexin-V/PI staining based flow cytometry analysis (reference value: 1.87%); type: functional
A549 [24] = test: Induction of cell cycle arrest in human A549 cells assessed as accumulation of cells at G2/M phase at 1.2 uM measured after 24 hrs by PI staining based flow cytometry analysis (reference value: 21.00%); type: functional
A549 [25] = test: Induction of apoptosis in human A549 cells assessed as late apoptotic cells at 1.2 uM measured after 24 hrs by annexin-V/PI staining based flow cytometry analysis (reference value: 0.25%); type: functional
A549 [26] = test: Induction of apoptosis in human A549 cells assessed as viable cells at 1.2 uM measured after 24 hrs by annexin-V/PI staining based flow cytometry analysis (reference value: 97.4%); type: functional; details: read-out: Activity
A549 [27] = test: Induction of cell cycle arrest in human A549 cells assessed as accumulation of cells at G0/G1 phase at 1.2 uM measured after 24 hrs by PI staining based flow cytometry analysis (reference value: 55.88%); type: functional
A549 [28] = test: Induction of cell cycle arrest in human A549 cells assessed as accumulation of cells at S phase at 2.4 uM measured after 24 hrs by PI staining based flow cytometry analysis (reference value: 23.17%); type: functional

## CCN1CCN(c2ccc(NC(=O)/C(=C/c3ccc(OC)c(O)c3)c3cc(OC)c(OC)c(OC)c3)cc2)CC1
A549 [1]
  pIC50: 4.34

## CC(=O)O[C@H]1C(=O)[C@@]2(C)[C@H]([C@H](OC(=O)c3ccccc3)[C@]3(O)C[C@H](OC(=O)[C@H](O)[C@@H](NC(=O)c4ccccc4)c4ccccc4)C(C)=C1C3(C)C)[C@]1(OC(C)=O)CO[C@@H]1C[C@@H]2O
Tubulin (Homo sapiens) [2]
  inhibition: inactive

## COc1ccc(/C=C(/C(=O)Nc2ccc(Cl)cc2)c2cc(OC)c(OC)c(OC)c2)cc1OC(C)=O
A549 [1]
  pIC50: 5.58
Tubulin (Homo sapiens) [3]
  inhibition: 3%
HeLa
  pIC50: 4.76
HT-29
  pIC50: 4.52
[4]
  pIC50: < 4.00
HCT-116
  pIC50: 4.69

## COc1ccc(/C=C(/C(=O)Nc2ccc(C(C)C)cc2)c2cc(OC)c(OC)c(OC)c2)cc1O
A549 [1]
  pIC50: 4.36

## COc1ccc(/C=C(/C(=O)Nc2ccc(N3CCN(C)CC3)cc2)c2cc(OC)c(OC)c(OC)c2)cc1OC(C)=O
A549 [1]
  pIC50: < 4.30

## COc1ccc(NC(=O)/C(=C/c2ccc(OC)c(O)c2)c2cc(OC)c(OC)c(OC)c2)cc1
A549 [1]
  pIC50: < 4.30

## COc1ccc(/C=C(/C(=O)Nc2cc(OC)c(OC)c(OC)c2)c2cc(OC)c(OC)c(OC)c2)cc1OC(C)=O
A549 [1]
  pIC50: 6.14
Tubulin (Homo sapiens) [3]
  inhibition: 34%
HeLa
  pIC50: 5.01
HT-29
  pIC50: 5.33
[4]
  pIC50: < 4.00
HCT-116
  pIC50: 5.26

## COc1ccc(/C=C(/C(=O)NC2CCCC2)c2cc(OC)c(OC)c(OC)c2)cc1O
A549 [1]
  pIC50: < 4.30

## COc1ccc(/C=C(/C(=O)NCc2ccccc2)c2cc(OC)c(OC)c(OC)c2)cc1OC(C)=O
A549 [1]
  pIC50: 4.47

## COc1ccc(/C=C(/C(=O)NC2CCCC2)c2cc(OC)c(OC)c(OC)c2)cc1OC(C)=O
A549 [1]
  pIC50: < 4.30

## COc1ccc(/C=C(/C(=O)NC2CC2)c2cc(OC)c(OC)c(OC)c2)cc1O
A549 [1]
  pIC50: < 4.30

## COc1ccc(/C=C(/C(=O)Nc2ccccc2)c2cc(OC)c(OC)c(OC)c2)cc1OC(C)=O
A549 [1]
  pIC50: 5.41

## COc1ccc(/C=C(/C(=O)Nc2ccc(C)cc2)c2cc(OC)c(OC)c(OC)c2)cc1OC(C)=O
A549 [1]
  pIC50: 5.40

## COc1ccc(/C=C(/C(=O)Nc2ccc(Cl)cc2)c2cc(OC)c(OC)c(OC)c2)cc1O
A549 [1]
  pIC50: < 4.30

## COc1ccc(/C=C(/C(=O)Nc2ccc(C(C)C)cc2)c2cc(OC)c(OC)c(OC)c2)cc1OC(C)=O
A549 [1]
  pIC50: 5.97
Tubulin (Homo sapiens) [3]
  inhibition: 3%
HeLa
  pIC50: 4.63
HT-29
  pIC50: 4.74
[4]
  pIC50: < 4.00
HCT-116
  pIC50: 4.54

## CCN1CCN(c2ccc(NC(=O)/C(=C/c3ccc(OC)c(OC(C)=O)c3)c3cc(OC)c(OC)c(OC)c3)cc2)CC1
A549 [1]
  pIC50: 5.31

## COc1ccc(/C=C(/C(=O)Nc2ccc(C)cc2)c2cc(OC)c(OC)c(OC)c2)cc1O
A549 [1]
  pIC50: 4.61

## CCc1ccc(NC(=O)/C(=C/c2ccc(OC)c(OC(C)=O)c2)c2cc(OC)c(OC)c(OC)c2)cc1
A549 [1]
  pIC50: 5.45

## COc1ccc(/C=C(/C(=O)Nc2ccccc2)c2cc(OC)c(OC)c(OC)c2)cc1O
A549 [1]
  pIC50: 5.62
A549 [5]
  Activity: 53.73%
A549 [6]
  Activity: 2.96%
Tubulin (Homo sapiens) [3]
  inhibition: 62%
A549 [7]
  Activity: Dose-Dependent Effect
A549 [8]
  Activity: 3.33%
Tubulin
  pIC50: 5.16
A549 [9]
  Activity: Dose-Dependent Effect
HeLa
  pIC50: 4.99
A549 [10]
  viability at 2.4 µM: 93.1%
Tubulin (Homo sapiens) [11]
  inhibition: Active
A549 [12]
  Activity: 46.63%
A549 [13]
  Activity: 0.27%
A549 [14]
  Activity: 22.72%
A549 [15]
  Activity: 13.9%
A549 [16]
  Activity: 5.15%
A549 [17]
  Activity: 40.69%
A549 [18]
  Activity: 32.36%
A549 [19]
  Activity: 4.97%
HT-29
  pIC50: 5.27
A549 [20]
  Activity: 1.65%
A549 [21]
  Activity: 1.98%
A549 [22]
  viability at 4.8 µM: 86.9%
[4]
  pIC50: < 4.00
A549 [23]
  Activity: 1.87%
A549 [24]
  Activity: 28.81%
HCT-116
  pIC50: 5.20
A549 [25]
  Activity: 1.35%
A549 [26]
  viability at 1.2 µM: 96.4%
A549 [27]
  Activity: 53.47%
A549 [28]
  Activity: 32.71%

## COc1ccc(/C=C(/C(=O)NC2CC2)c2cc(OC)c(OC)c(OC)c2)cc1OC(C)=O
A549 [1]
  pIC50: < 4.30

## COc1ccc(/C=C(/C(=O)Nc2cc(OC)c(OC)c(OC)c2)c2cc(OC)c(OC)c(OC)c2)cc1O
A549 [1]
  pIC50: < 4.30

## COc1ccc(NC(=O)/C(=C/c2ccc(OC)c(OC(C)=O)c2)c2cc(OC)c(OC)c(OC)c2)cc1
A549 [1]
  pIC50: 5.52

## COc1ccc(/C=C(/C(=O)Nc2ccc(N3CCN(C)CC3)cc2)c2cc(OC)c(OC)c(OC)c2)cc1O
A549 [1]
  pIC50: < 4.30

## CCc1ccc(NC(=O)/C(=C/c2ccc(OC)c(O)c2)c2cc(OC)c(OC)c(OC)c2)cc1
A549 [1]
  pIC50: < 4.30

## COc1ccc(/C=C(/C(=O)NCc2ccccc2)c2cc(OC)c(OC)c(OC)c2)cc1O
A549 [1]
  pIC50: < 4.30

## COc1ccc(/C=C\c2cc(OC)c(OC)c(OC)c2)cc1O [COMBRETASTATIN A4]
A549 [1]
  pIC50: 6.96
HeLa
  pIC50: 7.10
HT-29
  pIC50: 5.78
[4]
  pIC50: 4.32
HCT-116
  pIC50: 5.32
